Laboratory results as given in ChEMBL document CHEMBL1128371, “Synthesis and structure-activity relationships of side-chain-substituted analogs of the allylamine antimycotic terbinafine lacking the central amino function” (1995).
In brackets after ≈: the same amount, converted by molar mass.

How the values were obtained:
Aspergillus fumigatus = experiment: In vitro antifungal activity against Aspergillus fumigatus; type: functional
Candida albicans = experiment: In vitro antifungal activity against Candida albicans 124; type: functional
Trichophyton benhamiae = experiment: In vitro antifungal activity against Trichophyton mentagrophytes; type: functional, Arthroderma benhamiae
Microsporum canis = experiment: In vitro antifungal activity against Microsporum canis; type: functional
Candida parapsilosis = experiment: In vitro antifungal activity against Candida parapsilosis 39; type: functional; conditions: Lodderomyces parapsilosis
Sporothrix schenckii = experiment: In vitro antifungal activity against Sporothrix schenck ii; type: functional

Structure (SMILES) | MIC (Aspergillus fumigatus) [µg/mL] | MIC (Candida albicans) [µg/mL] | MIC (Trichophyton benhamiae) [µg/mL] | MIC (Microsporum canis) [µg/mL] | MIC (Candida parapsilosis) [µg/mL] | MIC (Sporothrix schenckii) [µg/mL]
CN(C/C=C/C#CC(C)(C)C)Cc1cccc2ccccc12 [TERBINAFINE] | 0.8 (≈ 2.75 µM) | 25 (≈ 85.8 µM) | 0.003 (≈ 0.0103 µM) | 0.006 (≈ 0.0206 µM) | 0.8 (≈ 2.75 µM) | 0.4 (≈ 1.37 µM)
CC(C/C=C/C#CC(C)(C)C#N)Cc1cccc2ccccc12 (stereo not given) | > 100 | > 100 | 0.4 (≈ 1.33 µM) | 12.5 (≈ 41.5 µM) | > 100 | > 100
CNC(=O)C(C)(C)C#C/C=C/CC(C)Cc1cccc2ccccc12 (stereo not given) | > 100 | > 100 | 0.4 (≈ 1.2 µM) | 1.6 (≈ 4.8 µM) | > 100 | > 100
CC(C/C=C/C#CC(C)(C)C(=O)O)Cc1cccc2ccccc12 (stereo not given) | > 100 | > 100 | > 100 | > 100 | > 100 | > 100
CC(C/C=C/C#CC(C)(C)C(N)=O)Cc1cccc2ccccc12 (stereo not given) | > 100 | > 100 | > 100 | > 100 | > 100 | > 100
CC(C/C=C/C#CC(C)(C)N(C)c1ccccc1)Cc1cccc2ccccc12 (stereo not given) | > 100 | > 100 | > 100 | > 100 | > 100 | > 100
CC(C/C=C/C#CC(C)(C)[N+](C)(C)C)Cc1cccc2ccccc12 (stereo not given) | > 100 | 25 | > 100 | > 100 | 100 | 12.5

More lines, now with the values ahead:

MIC (Aspergillus fumigatus) [µg/mL] | MIC (Candida albicans) [µg/mL] | MIC (Trichophyton benhamiae) [µg/mL] | MIC (Microsporum canis) [µg/mL] | MIC (Candida parapsilosis) [µg/mL] | MIC (Sporothrix schenckii) [µg/mL] | Structure (SMILES)
> 100 | > 100 | 0.4 (≈ 1.38 µM) | 3.1 (≈ 10.7 µM) | > 100 | > 100 | CC(C/C=C/C#CC(C)(C)C)Cc1cccc2ccccc12 (stereo not given)
> 100 | > 100 | 3.1 (≈ 10.1 µM) | 100 (≈ 326 µM) | > 100 | > 100 | CC(C/C=C/C#CC(C)(C)CO)Cc1cccc2ccccc12 (stereo not given)
12.5 (≈ 39.1 µM) | 50 (≈ 156 µM) | 0.1 (≈ 0.313 µM) | 0.2 (≈ 0.626 µM) | 6.25 (≈ 19.6 µM) | 3.1 (≈ 9.7 µM) | CC(C/C=C/C#CC(C)(C)N(C)C)Cc1cccc2ccccc12 (stereo not given)
> 100 | > 100 | 0.1 (≈ 0.299 µM) | 0.8 (≈ 2.39 µM) | > 100 | > 100 | COC(=O)C(C)(C)C#C/C=C/CC(C)Cc1cccc2ccccc12 (stereo not given)
50 (≈ 164 µM) | > 50 | 6.25 (≈ 20.5 µM) | 25 (≈ 81.8 µM) | > 50 | 25 (≈ 81.8 µM) | CC(C/C=C/C#CC(C)(C)CN)Cc1cccc2ccccc12 (stereo not given)
25 (≈ 85.8 µM) | > 100 | 1.6 (≈ 5.49 µM) | 3.1 (≈ 10.6 µM) | > 100 | 12.5 (≈ 42.9 µM) | CC(C/C=C/C#CC(C)(C)N)Cc1cccc2ccccc12 (stereo not given)
> 100 | > 100 | 3.1 (≈ 10.6 µM) | > 100 | > 100 | > 100 | CC(C/C=C/C#CC(C)(C)O)Cc1cccc2ccccc12 (stereo not given)
12.5 (≈ 43.5 µM) |  | 0.05 (≈ 0.174 µM) | 0.1 (≈ 0.348 µM) | 1.6 (≈ 5.57 µM) | 1.6 (≈ 5.57 µM) | CN(C/C=C/c1ccccc1)Cc1cccc2ccccc12 [NAFTIFINE]
> 50 | > 50 | > 50 | > 50 | > 50 | > 50 | CC(=O)NC(C)(C)C#C/C=C/CC(C)Cc1cccc2ccccc12 (stereo not given)
